From the supplement of paper PMC11208160 come the findings set out here.

A short description of this series: recombinant barcode read abundance after kanamycin selection (control-corrected) (log10(CPM+1)); higher = more efficient recombination; sequences stand for … in AGTGCAGAGAAAATCGGCCAGTTTTCTCTGCCTGCAGTCCGCATGCCGT…AGATTTATGCAGCGGACTGCCTTTCTCCCAAAGTGATAAACCGGACAGTATCATGGACCGGTTTTCCCGGTAATCCGTATTTGCAAGGTTGGTTTCACT; site = the 11-nt target. As to the method:
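Pooled E. coli target-specificity screen for the IS621 bridge recombinase. Each library plasmid pairs an 11-nt target (CT core) with a bridge RNA whose target-binding loop (9-nt LTG + 4-nt RTG) is reprogrammed; the rest of the 177-nt WT IS621 bridge RNA scaffold is fixed. The plasmid is co-electroporated with a WT donor plasmid; recombinase is induced with 0.1 mM IPTG and recombinants are selected on kanamycin. Recombinant barcodes are sequenced, converted to CPM, averaged over two biological replicates and corrected by the unselected control CPM. Molecule = full bridge RNA written as DNA: LTG = specificity nt 1-9, RTG = reverse complement of specificity nt 8-11, in the WT scaffold.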
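Further: IS621 recombinase and bridge RNA in Escherichia coli cells.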

As for “ACAGTCGCTTGGGTTCTAACCTGTTGCCT (site ACAGCCGCTAG)”, the “recombinant barcode read abundance (log10)” value is 0.0854. Next, “ACAGTCGCTTGGGTTCTAACCTGTTGCCT (site ACAGGCGCTAG)”: 0; “ACAGTCGCTTGGGTTCTAACCTGTTGCCT (site ACAGTCGCTAG)”: 1.4; “ACATAAGCTTGGGTTCTAACCTGTTGCCT (site ACATAAGCTAG)”: 1.1. For the sequence “ACATAAGCTTGGGTTCTAACCTGTTGCCT (site CATCGGACTCT)”, the “recombinant barcode read abundance (log10)” value worked out at 0.116.

On to “ACATATACTTGGGTTCTAACCTGTTGCTT (site ACATATACTAA)”, for which the “recombinant barcode read abundance (log10)” value is 0.0772. Consider “ACATATACTTGGGTTCTAACCTGTTGCTT (site CGTAGCCCTCC)”, for which the “recombinant barcode read abundance (log10)” value came out at 0.125. As for “ACATGAACTTGGGTTCTAACCTGTTGCAT (site ACATGAACTAT)”, the “recombinant barcode read abundance (log10)” value was 1.38.

As to “ACATGAACTTGGGTTCTAACCTGTTGCAT (site ACATGCACTAT)”, the “recombinant barcode read abundance (log10)” value is 0.111. As for “ACATGAACTTGGGTTCTAACCTGTTGCAT (site ACATGGACTAT)”, the “recombinant barcode read abundance (log10)” value is 0.141. For “ACATGAACTTGGGTTCTAACCTGTTGCAT (site ACATGTACTAT)”, the “recombinant barcode read abundance (log10)” value stood at 0.0493.

Turning to “ACATGACCTTGGGTTCTAACCTGTTGCTT (site ACATGACCTAA)”, the “recombinant barcode read abundance (log10)” value is 0.223. Consider “ACATGACCTTGGGTTCTAACCTGTTGCTT (site ATATGAGCTAA)”, for which the “recombinant barcode read abundance (log10)” value stood at 0.0302. For “ACATGGGCTTGGGTTCTAACCTGTTGCCG (site ACATGGGCTCG)”, the “recombinant barcode read abundance (log10)” value was 0.695. As for “ACATGGGCTTGGGTTCTAACCTGTTGCCG (site ACATGTGCTCT)”, the “recombinant barcode read abundance (log10)” value was 0.266. Next, “ACATGTCCTTGGGTTCTAACCTGTTGCGT (site ACATGTCCTAA)”: 0.141. “ACATGTCCTTGGGTTCTAACCTGTTGCGT (site ACATGTCCTAC)”: the “recombinant barcode read abundance (log10)” value was determined as 2.39.

Take “ACATGTCCTTGGGTTCTAACCTGTTGCGT (site ACATGTCCTAG)”: the “recombinant barcode read abundance (log10)” value was determined as 0.23. Consider “ACATGTCCTTGGGTTCTAACCTGTTGCGT (site ACATGTCCTAT)”, for which the “recombinant barcode read abundance (log10)” value was 1.48.

Consider “ACATGTGCTTGGGTTCTAACCTGTTGCAG (site ACATGGGCTCG)”, for which the “recombinant barcode read abundance (log10)” value came to 0.0637.

As for “ACATGTGCTTGGGTTCTAACCTGTTGCAG (site ACATGTGCTCT)”, the “recombinant barcode read abundance (log10)” value came out at 1.72. With “ACATTAGCTTGGGTTCTAACCTGTTGCAA (site ACATTAGCTTT)”, the “recombinant barcode read abundance (log10)” value was 0.609. Turning to “ACATTAGCTTGGGTTCTAACCTGTTGCAA (site ACTTTAGCTCT)”, the “recombinant barcode read abundance (log10)” value worked out at 0.0541. Next, “ACCAAATCTTGGGTTCTAACCTGTTGCTA (site ACCAAATCTCG)”: 0.356; “ACCAAATCTTGGGTTCTAACCTGTTGCTA (site ACCAAATCTTA)”: 0.23; “ACCAAGTCTTGGGTTCTAACCTGTTGCGT (site ACCAAGTCTAC)”: 1.98. Regarding “ACCAAGTCTTGGGTTCTAACCTGTTGCGT (site ACCAAGTCTGC)”, the “recombinant barcode read abundance (log10)” value was 0.326.

Consider “ACCAATACTTGGGTTCTAACCTGTTGCCT (site ACCAATACTAG)”, for which the “recombinant barcode read abundance (log10)” value came out at 0.0309. As for “ACCAATACTTGGGTTCTAACCTGTTGCCT (site ACCAATCCTAG)”, the “recombinant barcode read abundance (log10)” value came to 0.122.

For “ACCAATACTTGGGTTCTAACCTGTTGCCT (site ACCAATGCTAG)”, the “recombinant barcode read abundance (log10)” value worked out at 0.939.

With “ACCAATACTTGGGTTCTAACCTGTTGCCT (site ACCAATTCTAG)”, the “recombinant barcode read abundance (log10)” value amounted to 0.0138. “ACCAATGCTTGGGTTCTAACCTGTTGCCT (site ACCAATACTAG)”: the “recombinant barcode read abundance (log10)” value was 0.182.

Take “ACCAATGCTTGGGTTCTAACCTGTTGCCT (site ACCAATCCTAG)”: the “recombinant barcode read abundance (log10)” value is 0.136.

On to “ACCAATGCTTGGGTTCTAACCTGTTGCCT (site ACCAATGCTAG)”, for which the “recombinant barcode read abundance (log10)” value was determined as 0.0431. The value for “ACCAATGCTTGGGTTCTAACCTGTTGCCT (site ACCAATTCTAG)” was 0.163.

For the sequence “ACCAATTCTTGGGTTCTAACCTGTTGCCT (site ACCAATACTAG)”, the “recombinant barcode read abundance (log10)” value worked out at 0.059. In the case of “ACCAATTCTTGGGTTCTAACCTGTTGCCT (site ACCAATCCTAG)”, the “recombinant barcode read abundance (log10)” value was 0.111. With “ACCAATTCTTGGGTTCTAACCTGTTGCCT (site ACCAATGCTAG)”, the “recombinant barcode read abundance (log10)” value was found to be 0.0727. Next, “ACCAATTCTTGGGTTCTAACCTGTTGCCT (site ACCAATTCTAG)”: 0.483.

“ACCCAACCTTGGGTTCTAACCTGTTGCCT (site ACCCAAACTAG)”: the “recombinant barcode read abundance (log10)” value was found to be 0.242. Next, “ACCCAACCTTGGGTTCTAACCTGTTGCCT (site ACCCAACCTAG)”: 1.58; “ACCCAACCTTGGGTTCTAACCTGTTGCCT (site ACCCAAGCTAG)”: 0.104; “ACCCAACCTTGGGTTCTAACCTGTTGCCT (site ACCCAATCTAG)”: 0.0366. Next, “ACCCAATCTTGGGTTCTAACCTGTTGCCT (site ACCCAAACTAG)”: 0.266; “ACCCAATCTTGGGTTCTAACCTGTTGCCT (site ACCCAACCTAG)”: 0.0978. On to “ACCCAATCTTGGGTTCTAACCTGTTGCCT (site ACCCAAGCTAG)”, for which the “recombinant barcode read abundance (log10)” value was 0.207. As for “ACCCAATCTTGGGTTCTAACCTGTTGCCT (site ACCCAATCTAG)”, the “recombinant barcode read abundance (log10)” value was determined as 1.47.

“ACCCACACTTGGGTTCTAACCTGTTGCCG (site ACCCACACTCG)”: the “recombinant barcode read abundance (log10)” value was determined as 1.8.

In the case of “ACCCACACTTGGGTTCTAACCTGTTGCCG (site TCCCACACTTG)”, the “recombinant barcode read abundance (log10)” value was found to be 0.111. As for “ACCGAGACTTGGGTTCTAACCTGTTGCGG (site ACCGAGACTCC)”, the “recombinant barcode read abundance (log10)” value came out at 2.7. As for “ACCGAGACTTGGGTTCTAACCTGTTGCGG (site AGTGAGACTCC)”, the “recombinant barcode read abundance (log10)” value was 0.0628. The value for “ACCGAGTCTTGGGTTCTAACCTGTTGCCT (site AACGAGTCTAG)” was 0.202. In the case of “ACCGAGTCTTGGGTTCTAACCTGTTGCCT (site ACCGAGTCTAG)”, the “recombinant barcode read abundance (log10)” value worked out at 1.85. “ACCGAGTCTTGGGTTCTAACCTGTTGCCT (site AGCGAGTCTAG)”: the “recombinant barcode read abundance (log10)” value stood at 0.164. As for “ACCGAGTCTTGGGTTCTAACCTGTTGCCT (site ATCGAGTCTAG)”, the “recombinant barcode read abundance (log10)” value worked out at 0.387.

For the sequence “ACCGCTACTTGGGTTCTAACCTGTTGCCT (site ACCGCTACTAG)”, the “recombinant barcode read abundance (log10)” value is 0.176.

In the case of “ACCGCTACTTGGGTTCTAACCTGTTGCCT (site AGCGCTACTAG)”, the “recombinant barcode read abundance (log10)” value turned out to be 0.0813.

For the sequence “ACCGGGACTTGGGTTCTAACCTGTTGCCT (site ACCGAGACTAG)”, the “recombinant barcode read abundance (log10)” value was found to be 0.285.

On to “ACCGGGACTTGGGTTCTAACCTGTTGCCT (site ACCGCGACTAG)”, for which the “recombinant barcode read abundance (log10)” value stood at 0.159. On to “ACCGGGACTTGGGTTCTAACCTGTTGCCT (site ACCGGGACTAG)”, for which the “recombinant barcode read abundance (log10)” value stood at 1.14. The value for “ACCGGGACTTGGGTTCTAACCTGTTGCCT (site ACCGTGACTAG)” was 0; that for “ACCGGTACTTGGGTTCTAACCTGTTGCCT (site ACCAGTACTAG)” was 0.408.

Consider “ACCGGTACTTGGGTTCTAACCTGTTGCCT (site ACCCGTACTAG)”, for which the “recombinant barcode read abundance (log10)” value is 0.014. The value for “ACCGGTACTTGGGTTCTAACCTGTTGCCT (site ACCGGTACTAG)” was 0.508. On to “ACCGGTACTTGGGTTCTAACCTGTTGCCT (site ACCTGTACTAG)”, for which the “recombinant barcode read abundance (log10)” value was found to be 0.0135. “ACCTAACCTTGGGTTCTAACCTGTTGCAG (site ACCTAACCTCT)”: the “recombinant barcode read abundance (log10)” value stood at 1.22. As for “ACCTAACCTTGGGTTCTAACCTGTTGCAG (site TCCTAACCTCA)”, the “recombinant barcode read abundance (log10)” value was 0.0355.

Take “ACCTGTCCTTGGGTTCTAACCTGTTGCCT (site ACCTGACCTAG)”: the “recombinant barcode read abundance (log10)” value was 0.269. “ACCTGTCCTTGGGTTCTAACCTGTTGCCT (site ACCTGCCCTAG)”: the “recombinant barcode read abundance (log10)” value was 0.0321. In the case of “ACCTGTCCTTGGGTTCTAACCTGTTGCCT (site ACCTGGCCTAG)”, the “recombinant barcode read abundance (log10)” value stood at 0.173. Next, “ACCTGTCCTTGGGTTCTAACCTGTTGCCT (site ACCTGTCCTAG)”: 0.986.

Consider “ACCTTAACTTGGGTTCTAACCTGTTGCCT (site ACCTTAACTAG)”, for which the “recombinant barcode read abundance (log10)” value was determined as 0.166.

With “ACCTTAACTTGGGTTCTAACCTGTTGCCT (site ATCTCAACTAG)”, the “recombinant barcode read abundance (log10)” value was found to be 0.
